Test results from the NIST ThermoML archive (doi:10.1016/j.jct.2016.09.026).
± gives the expanded uncertainty stated by the source.

What was measured:
[1] = Molar enthalpy of transition or fusion; conditions: Crystal; DSC
[2] = molar heat capacity at constant pressure; conditions: 101.33 kPa, Crystal, Small sample (50 mg) DSC
[3] = molar enthalpy of vaporization or sublimation; conditions: 351.22 K; Crystal; Static calorimetry
[4] = Crystal

CCCC(=O)c1ccc(O)cc1 [1-(4-hydroxyphenyl)-1-butanone]
Conditions | Molar enthalpy of transition or fusion [kcal/mol] | molar enthalpy [kcal/mol]
[1] | 5.73 ± 0.129 | –
[3] | – | 27.3 ± 0.406

Conditions | Normal melting temperature [°C] | molar heat capacity at constant pressure [J/K/mol]
[2], 288.67 K | – | 219.2 ± 14
[2], 289.99 K | – | 221.2 ± 15
[2], 291.29 K | – | 221.3 ± 14
[2], 291.6 K | – | 222 ± 15
[2], 292.87 K | – | 223.3 ± 15
[2], 294.14 K | – | 224.2 ± 14
[2], 295.4 K | – | 225.7 ± 13
[2], 296.66 K | – | 227.4 ± 12
[2], 297.92 K | – | 228.6 ± 13
[2], 299.17 K | – | 229.2 ± 12
[2], 300.43 K | – | 231 ± 12
[2], 301.68 K | – | 232.3 ± 10
[2], 302.94 K | – | 232.9 ± 11
[2], 304.19 K | – | 234.6 ± 7.7
[2], 305.45 K | – | 234.9 ± 9.2
[2], 306.7 K | – | 236.9 ± 9.5
[2], 307.95 K | – | 238.6 ± 8.6
[2], 309.21 K | – | 239.7 ± 7.8
[2], 310.46 K | – | 240.7 ± 7.8
[2], 311.71 K | – | 242 ± 7.2
[2], 312.96 K | – | 243.7 ± 7.8
[2], 314.21 K | – | 244.9 ± 6.2
[2], 315.46 K | – | 245.8 ± 5.9
[2], 316.71 K | – | 247 ± 4.7
[2], 317.96 K | – | 247.7 ± 6.2
[2], 319.22 K | – | 249.1 ± 5
[2], 320.47 K | – | 250.2 ± 4
[2], 321.72 K | – | 251.4 ± 5.5
[2], 322.97 K | – | 253 ± 5.2
[2], 324.23 K | – | 254.5 ± 6
[2], 325.48 K | – | 256.4 ± 5
[2], 326.73 K | – | 257.1 ± 6.3
[2], 327.98 K | – | 258.9 ± 6.5
[2], 329.23 K | – | 260.2 ± 6.5
[2], 330.48 K | – | 262.1 ± 7.6
[2], 331.73 K | – | 263.6 ± 7.7
[2], 332.98 K | – | 265.5 ± 6.3
[2], 334.23 K | – | 265.9 ± 7.7
[2], 335.48 K | – | 267.6 ± 7.1
[2], 336.73 K | – | 270.1 ± 6.6
[2], 337.98 K | – | 270.4 ± 7.7
[2], 339.23 K | – | 272 ± 8
[2], 340.48 K | – | 274.4 ± 10
[2], 341.73 K | – | 276 ± 8.9
[2], 342.98 K | – | 278.2 ± 11
[2], 344.23 K | – | 279.7 ± 10
[2], 345.48 K | – | 281.2 ± 12
[2], 346.73 K | – | 282.8 ± 11
[2], 347.98 K | – | 284.5 ± 12
[2], 349.23 K | – | 287 ± 13
[2], 350.48 K | – | 289 ± 12
[4], DTA | 91.6 ± 0.4 | –

Conditions | mass density [kg/m3]
[4], 298 K, 101.33 kPa, X-ray diffraction | 1204.5 ± 7.1
